In patent publication US20120251525A1, “METHOD OF UTILIZING AZELAIC ACID ESTERS TO MODULATE COMM[…] BY […]” (priority 2009, published 2012):

Columns and labels:
EpiDerm tissues = experiment: MatTek EpiDerm in vitro human skin model, croton oil irritant, multiplex immunoassay of markers; type: cell-based; conditions: for tissue levels of IL-17 / tissue levels of MIP-1-alpha: relative to control (croton oil only)
[1] = tested on: human cutaneous malignant melanoma; conditions: Zaffaroni et al. 1990; cited from earlier work
human choroidal melanoma = conditions: Breathnach et al. 1989; cited from earlier work
[2] = tested on: human squamous cell carcinoma; conditions: Paetzold et al. 1989; cited from earlier work
[3] = tested on: various fibroblastic lines; conditions: Geier et al. 1986; cited from earlier work
[4] = clinical practice; cited from earlier work
[5] = growth medium, croton oil, 24 hours, relative to control
[6] = tissue, croton oil, 24 hours, relative to control

| SMILES | IL-8 modulation (EpiDerm tissues; matrix not stated) | IL-17 modulation (EpiDerm tissues; matrix not stated) | IL-23 modulation (EpiDerm tissues; matrix not stated) | tissue levels of IL-17 (EpiDerm tissues; tissue) | tissue levels of MIP-1-alpha (EpiDerm tissues; tissue) | IL-1-beta medium marker level (EpiDerm tissues; [5]) | IL-4 medium marker level (EpiDerm tissues; [5]) | IL-10 medium marker level (EpiDerm tissues; [5]) | TNF-alpha medium marker level (EpiDerm tissues; [5]) | IL-1-beta tissue level (EpiDerm tissues; [6]) | IL-4 tissue level (EpiDerm tissues; [6]) | IL-10 tissue level (EpiDerm tissues; [6]) | TNF-alpha tissue level (EpiDerm tissues; [6]) | antiproliferative and cytotoxic action [1] | antiproliferative and cytotoxic action (human choroidal melanoma) | antiproliferative and cytotoxic action [2] | antiproliferative and cytotoxic action [3] | major dose limiting toxicity [4] |
| --- | --- | --- | --- | --- | --- | --- | --- | --- | --- | --- | --- | --- | --- | --- | --- | --- | --- | --- |
| CCOC(=O)CCCCCCCC(=O)OCC [DEA, diethyl azelate] | suppressing | suppressing | suppressing | exceedingly high relative to control | elevated relative to control |  |  |  |  |  |  |  |  |  |  |  |  |  |
| COC(=O)CCCCCCCC(=O)OC [DMA, dimethylazelate] |  |  |  |  |  | increased | increases | increases | increased | decreased relative to control | decreased relative to control | decreased relative to control | decreased relative to control |  |  |  |  |  |
| O=C(O)CCCCCCCC(=O)O [azelaic acid] |  |  |  | significantly lower than control | elevated relative to control |  |  |  |  |  |  |  |  | antiproliferative and cytotoxic action | antiproliferative and cytotoxic action | antiproliferative and cytotoxic action | antiproliferative and cytotoxic action | skin irritation |
